# Assay results published in patent US7829280B2, “Process for reducing interferences in luciferase enzyme assays” (LuminUltra Technologies Ltd., priority 2007, dated 2010).
# Tests used:
# firefly luciferase [1] = biological target: T1, firefly luciferase (Photinus pyralis, UniProt P08659); assay: Firefly luciferase assay of ATP standard solution containing ADBAC, with and without chelating resin pre-treatment; type: biochemical; conditions: phosphate buffer ATP solution containing 1000 mg/L ADBAC
# T1 sequence (P08659 whole entry): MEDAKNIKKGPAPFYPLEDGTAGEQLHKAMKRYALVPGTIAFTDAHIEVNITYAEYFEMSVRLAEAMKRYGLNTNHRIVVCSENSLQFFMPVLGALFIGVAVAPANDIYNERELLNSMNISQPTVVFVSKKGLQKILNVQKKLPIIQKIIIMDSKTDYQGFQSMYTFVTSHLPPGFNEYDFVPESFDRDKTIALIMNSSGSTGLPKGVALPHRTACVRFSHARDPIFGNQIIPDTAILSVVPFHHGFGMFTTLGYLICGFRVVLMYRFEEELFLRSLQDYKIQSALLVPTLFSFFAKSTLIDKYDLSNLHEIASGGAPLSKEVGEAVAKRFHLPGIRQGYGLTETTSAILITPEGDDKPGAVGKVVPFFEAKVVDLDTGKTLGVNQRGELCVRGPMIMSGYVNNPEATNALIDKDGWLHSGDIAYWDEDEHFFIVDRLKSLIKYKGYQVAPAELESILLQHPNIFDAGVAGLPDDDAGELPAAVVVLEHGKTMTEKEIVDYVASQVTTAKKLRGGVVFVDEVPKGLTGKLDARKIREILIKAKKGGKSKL
# Method: The light produced in this reaction was measured in a luminometer (Kikkoman C-100 Lumitester). Several dilutions of this ATP solution were also prepared in phosphate buffer and tested. In addition, a 3 mL portion of this solution was mixed with 1 mL of a chelating resin (IRC748, Rohm and Haas Company) and similarly diluted in phosphate buffer, then assayed for ATP.
# firefly luciferase [2] = biological target: T1, firefly luciferase; assay: Firefly luciferase assay for ATP in ADBAC extract of wastewater effluent, with and without chelating resin; type: biochemical
# Method: The ATP released by this process was measured in a Kikkoman luminometer by mixing 100 microliters of the mixture and combining it with 100 microliters of a luciferase assay mixture. Several dilutions of this ATP extract were also prepared in phosphate buffer and tested. In addition, a 3 mL portion of the ATP extract was mixed with 1 mL of a chelating resin (IRC748, Rohm and Haas Company) and similarly diluted in phosphate buffer, then assayed for ATP.
# Further dilutions were made in a phosphate buffer. The chelating resin was IRC-748. The resin treatment consisted of mixing 1 mL of resin with 3 mL of extract, then allowing the resin beads to settle before ATP analysis.
# luciferase [3] = biological target: T2, luciferase (Photinus pyralis, UniProt P08659); assay: Luciferase assay for ATP in ADBAC extract of wastewater effluent (different date), 2 mL resin or two 1 mL portions; type: biochemical, firefly; conditions: no extract pre-treatment
# T2 sequence (P08659 whole entry): as above
# Method: Further dilutions were made in a phosphate buffer. The chelating resin was IRC-748. The resin treatment consisted of mixing 2 mL of resin with 3 mL of extract, then allowing the resin beads to settle before ATP analysis. In a variation of this analysis, 3 mL of sample were treated with 1 mL of resin and the supernatant of this treatment was treated to a second 1 mL portion of resin prior to ATP analysis.
# luciferase [4] = biological target: T2, luciferase; assay: Luciferase activity in ATP standard spiked with ADBAC after treatment with various resins; type: biochemical, firefly; conditions: 10 ng/mL ATP
# Method: The experiment was conducted in the same format as described for the first experiment by testing an ATP standard solution spiked with ADBAC. The dilution required to remove inhibition following treatment with an ion-exchange resin was the same as the test condition in which no resin treatment was applied. In contrast, a ¼ fold dilution removed almost all of the inhibition in the solution that had been pre-treated with the chelating resin. Again, the luciferase activity in an undiluted solution treated with the chelating resin provided a response many times greater than untreated solution or solution treated with ion exchange resins.
# It should be noted that Table 4 is constructed from results of 2 different experiments. In order to facilitate comparison, the results are expressed as enzyme activity instead of instrument reading. Luciferase activity was calculated by dividing the RLU of each test condition by the RLU of an uninhibited reaction and expressing the results as a percentage.
# firefly luciferase [5] = biological target: T1, firefly luciferase; assay: Combined treatment with soluble (β-cyclodextrin) and insoluble (IRC-748) neutralizers of ADBAC inhibition of firefly luciferase; type: biochemical; conditions: β-cyclodextrin 3,750 mg/L, resin 1 part per 3 parts
# Method: Four dilution series were prepared from this stock solution. One series was diluted only in a phosphate buffer. Another identical series was prepared in the phosphate buffer but was pre-treated with IRC-748 chelating resin (3 parts solution treated with one part resin) prior to assaying for ATP. […] The fourth series was prepared in the same way as the third series, except that each member of the series was pre-treated with IRC-748 chelating resin (3 parts solution treated with one part resin) prior to assaying for ATP. All solutions were assayed for ATP by mixing 100 microliters of solution with 100 microliters of luciferase reagent and measuring the light produced in a Kikkoman luminometer.
# The experiment described in Example 5 compares the ability of a soluble agent (β-cyclodextrin) and an insoluble agent (chelating resin, IRC-748) and their combination to neutralize the inhibition of the bioluminescent reaction catalyzed by firefly luciferase.
# A concentrate of cyclodextrin was added to the ATP solutions in some of the tests to maintain concentration of 3,750 mg/L through the dilution series.
Compound,dilution factor needed to overcome luciferase inhibition (firefly luciferase [1]),"RLU (firefly luciferase [2]; dilution of ADBAC (1000 mg/L) in ATP extract 1/16, resin 1 mL per 3 mL extract)","RLU (firefly luciferase [2]; dilution of ADBAC (1000 mg/L) in ATP extract 1/32, resin 1 mL per 3 mL extract)","RLU (firefly luciferase [2]; dilution of ADBAC (1000 mg/L) in ATP extract ¼, resin 1 mL per 3 mL extract)","RLU (firefly luciferase [2]; dilution of ADBAC (1000 mg/L) in ATP extract ½, resin 1 mL per 3 mL extract)",RLU (luciferase [3]; dilution of ADBAC in ATP extract 1/16) [RLU],RLU (luciferase [3]; dilution of ADBAC in ATP extract 1/32) [RLU],RLU (luciferase [3]; dilution of ADBAC in ATP extract ¼),RLU (luciferase [3]; dilution of ADBAC in ATP extract ½) [RLU],RLU (luciferase [3]; dilution of ADBAC in ATP extract ⅛) [RLU],"Luciferase Activity (% of activity in the absence of ADBAC) (luciferase [4]; dilution 1/16, 1000 mg/L ADBAC stock in phosphate buffer) [%]","Luciferase Activity (% of activity in the absence of ADBAC) (luciferase [4]; dilution None, 1000 mg/L ADBAC in phosphate buffer) [%]","Luciferase Activity (% of activity in the absence of ADBAC) (luciferase [4]; dilution ¼, 1000 mg/L ADBAC stock in phosphate buffer) [%]","Luciferase Activity (% of activity in the absence of ADBAC) (luciferase [4]; dilution ½, 1000 mg/L ADBAC stock in phosphate buffer) [%]","Luciferase Activity (% of activity in the absence of ADBAC) (luciferase [4]; dilution ⅛, 1000 mg/L ADBAC stock in phosphate buffer) [%]","RLU (firefly luciferase [5]; dilution 1/16 of 7200 mg/L ADBAC, 1 ng ATP per mL stock) [RLU]","RLU (firefly luciferase [5]; dilution ¼ of 7200 mg/L ADBAC, 1 ng ATP per mL stock) [RLU]","RLU (firefly luciferase [5]; dilution ½ of 7200 mg/L ADBAC, 1 ng ATP per mL stock (3600 mg/L ADBAC, 0.5 ng/mL ATP)) [RLU]","RLU (firefly luciferase [5]; dilution ⅛ of 7200 mg/L ADBAC, 1 ng ATP per mL stock) [RLU]"
alkyl dimethybenzyl ammonium chloride [ADBAC],8,"4,628 RLU","2,401 RLU","4,658 RLU","1,489 RLU",3100,1551,"7,310 RLU",209,6064,100,0.01,33,6.7,100,,,,
OC[C@H]1O[C@@H]2O[C@H]3[C@H](O)[C@@H](O)[C@@H](O[C@H]4[C@H](O)[C@@H](O)[C@@H](O[C@H]5[C@H](O)[C@@H](O)[C@@H](O[C@H]6[C@H](O)[C@@H](O)[C@@H](O[C@H]7[C@H](O)[C@@H](O)[C@@H](O[C@H]8[C@H](O)[C@@H](O)[C@@H](O[C@H]1[C@H](O)[C@H]2O)O[C@@H]8CO)O[C@@H]7CO)O[C@@H]6CO)O[C@@H]5CO)O[C@@H]4CO)O[C@@H]3CO [β-cyclodextrin],,,,,,,,,,,,,,,,606,96,3,1227
